Source: article PMC9697031, “Identification of Novel Diarylpyrimidines as Potent HIV-1 Non-Nucleoside Reverse Transcriptase Inhibitors by Exploring the Primer Grip Region” (Pharmaceuticals, 2022)
Like-named read-outs stand apart in the source and are kept apart here.

How the values were obtained:
[1] = test system: HIV-1 L100I mutant strain; experiment: Anti-HIV-1 mutant strain L100I in MT-4 cells, MTT method; type: cell-based; conditions: Human immunodeficiency virus 1, MT4, read-out: EC50 L100I
Method: (§2) Evaluation of the anti-HIV activity and cytotoxicity of the target compounds was performed by utilizing the MTT method in MT-4 cells described previously [37]. Stock solutions (10 × final concentration) of test compounds were added in 25 μL volumes to two series of triplicate wells to allow simultaneous evaluation of their effects on mock- and HIV-infected cells at the beginning of each experiment. Serial five-fold dilutions of test compounds were prepared directly in flat-bottomed 96-well microtiter trays by adding 100 μL medium to the 25 μL stock solution and transferring 25 μL of this solution to another well that contained 100 μL medium using a Biomek 3000 robot (Beckman Instruments, Fullerton, CA). Each sample includes untreated control HIV- and mock-infected cell samples. WT HIV-1 strain (IIIB), HIV-1 drug-resistant strains including L100I, K103N, Y181C, Y188L, E138K, K103N/Y181C, F227L/V106A or HIV-2 strain (ROD) stock (50 μL) at 100–300 CCID50 (50% cell culture infectious dose) or culture medium was added to either the infected or mock-infected wells of the microtiter tray. Mock-infected cells were used to evaluate the effect of test compounds on uninfected cells to evaluate their cytotoxicity. Exponentially growing MT-4 cells were centrifuged for 5 min at 1000 rpm, and the supernatant was discarded. […] After infection five days, the viability of mock- and HIV-infected cells was examined spectrophotometrically by the MTT assay.

[2] = test system: HIV-1 Y188L mutant strain; experiment: Anti-HIV-1 mutant strain Y188L in MT-4 cells, MTT method; type: cell-based; conditions: Human immunodeficiency virus 1, MT4, read-out: EC50 Y188L
Method: as §2

[3] = test system: WT HIV-1 strain (IIIB); experiment: Anti-HIV-1 (IIIB, wild-type) activity in MT-4 cells, MTT method; type: cell-based; conditions: for SI (IIIB): selectivity index, CC50/EC50 (IIIB)
Method: (§1) Stock solutions (10 × final concentration) of test compounds were added in 25 μL volumes to two series of triplicate wells to allow simultaneous evaluation of their effects on mock- and HIV-infected cells at the beginning of each experiment.

[4] = test system: HIV-1 Y181C mutant strain; experiment: Anti-HIV-1 mutant strain Y181C in MT-4 cells, MTT method; type: cell-based; conditions: Human immunodeficiency virus 1, MT4, read-out: EC50 Y181C
Method: as §2

[5] = test system: HIV-1 F227L + V106A mutant strain; experiment: Anti-HIV-1 double mutant F227L + V106A in MT-4 cells, MTT method; type: cell-based; conditions: Human immunodeficiency virus 1, MT4, read-out: EC50 F227L + V106A
Method: as §2

[6] = test system: HIV-1 E138K mutant strain; experiment: Anti-HIV-1 mutant strain E138K in MT-4 cells, MTT method; type: cell-based; conditions: Human immunodeficiency virus 1, MT4, read-out: EC50 E138K
Method: as §2

[7] = test system: HIV-2 strain (ROD); experiment: Anti-HIV-2 (ROD) activity in MT-4 cells, MTT method; type: cell-based
Method: as §1

[8] = in vitro; conditions: human
Method: as §1

[9] = test system: HIV-1 K103N mutant strain; experiment: microbe, parasite or virus in culture; type: cell-based; conditions: for EC50: Human immunodeficiency virus 1, MT4, read-out: EC50 K103N; for Resistance Folds K103N: RF, EC50 (K103N)/EC50 (WT)
Method: as §1

[10] = test system: HIV-1 RES056 (K103N/Y181C) mutant strain; experiment: Anti-HIV-1 double mutant RES056 in MT-4 cells, MTT method; type: cell-based; conditions: Human immunodeficiency virus 1, MT4, read-out: EC50 RES056
Method: as §2

[11] = target: T1, HIV-1 WT RT (Human immunodeficiency virus type 1 group M subtype B, UniProt P04585); experiment: HIV-1 RT inhibition assay (Roche kit, ELISA); type: biochemical
T1 construct: The RT is a heterodimer consisting of two subunits, p66 (560 residues) and p51 (440 residues); purchased Roche
Method: An HIV-1 reverse transcriptase (RT) assay kit produced by Roche was used for the RT inhibition assay. All the reagents for performing the RT reaction came from the kit, and the ELSIA procedures for RT inhibition assay were conducted following the description in the kit protocol [38]. […] Then used, a washing buffer was used to remove the unbound dNTPs, and an anti-DIG-POD working solution was added. […] The unbound anti-DIG-PODs were removed, and the peroxidesubstrate (ABST) solution was added to the MTPs. A colored reaction proceeds during the cleavage of the substrate catalyzed by POD. […] The percentage inhibitory activity of RT inhibitors was calculated by the formula given below: % Inhibition = [O.D. value with RT but without inhibitors − O.D. value with RT and inhibitors]/[O.D. value with RT and inhibitors − O.D. value without RT and inhibitors].

[12] = Human immunodeficiency virus 1, MT4, MT-4 cells, WT HIV-1 IIIB, MTT, read-out: EC50 IIIB
[13] = Human immunodeficiency virus 1, IIIB, MT4, read-out: EC50 IIIB, MT-4 cells, WT HIV-1 IIIB, MTT
[14] = Human immunodeficiency virus 2, MT4, read-out: EC50 ROD

Row | SMILES | EC50 [1] [nM] | EC50 [2] [nM] | EC50 [3, 12] [nM] | SI (IIIB) [3] | EC50 [4] [nM] | EC50 [5] [nM] | EC50 [6] [nM] | EC50 ([7]; Human immunodeficiency virus 2, MT4, MT-4 cells, HIV-2 ROD, MTT, read-out: EC50 ROD) [nM] | CC50 at 5 days [8] [nM] | EC50 [9] [nM] | EC50 [10] [nM] | melting point [°C] | EC50 [3, 13] [nM] | IC50 [11] [nM] | EC50 [7, 14] [nM] | Resistance Folds K103N [9]
1 | Cc1cn([C@H]2C[C@H](N=[N+]=[N-])[C@@H](CO)O2)c(=O)[nH]c1=O [AZT, Zidovudine, reference compound] | 10 ± 1.2 | 19.4 ± 2.9 | 27.3 ± 3.5 | >274.0 | 25.1 ± 3 | 14.8 ± 1.1 | 30.1 ± 3 | 23.3 ± 2.1 | > 7480 | 22.8 ± 1.1 | 25.1 ± 1.8 |  |  |  |  | 
2 | O=C1Nc2ccc(Cl)cc2[C@@](C#CC2CC2)(C(F)(F)F)O1 [EFV, efavirenz, reference compound] | 35 ± 4.7 | 240 ± 30.4 | 2.4 ± 0.3 |  | 5.5 ± 0.5 | 201 ± 17.3 | 4.4 ± 0.3 |  | > 6340 | 95.1 ± 9.1 | 184 ± 22 |  |  |  |  | 
3 | Cc1ccnc2c1NC(=O)c1cccnc1N2C1CC1 [NVP, nevirapine, reference compound] | 1860 ± 365 | ≥ 13800 | 123 ± 7.3 |  | 10100 | > 15000 | 149 ± 12 |  | > 15000 | 7500 ± 867 | > 15000 |  |  |  |  | 
4 | Cc1cc(COc2ccccc2)cc(C)c1Oc1ccnc(Nc2ccc(C#N)cc2)n1 [TF1, 4-((4-(2,6-dimethyl-4-(phenoxymethyl)phenoxy)pyrimidin-2-yl)amino) benzonitrile] | 221 ± 53.5 | 1520 ± 92.1 |  | >17,326.7 | 515 ± 60.4 | 1710 ± 581 | 76.5 ± 9.4 |  | > 296000 | 50.7 ± 9.6 | 6850 ± 1170 | 179 to 182 | 17.1 ± 2.3 | 62 | > 296000 | 3.00
5 | Cc1cc(COc2ccc(C#N)cc2)cc(C)c1Oc1ccnc(Nc2ccc(C#N)cc2)n1 [TF2, 4-((4-(4-((4-cyanophenoxy)methyl)-2,6-dimethylphenoxy)pyrimidin-2-yl)amino) benzonitrile] | 117 ± 49.5 | 1390 ± 119 |  | >36,610.9 | 139 ± 34.9 | 1140 ± 346 | 44 ± 2.9 |  | > 279000 | 28.1 ± 7.1 | > 279000 | 202 to 205 | 7.6 ± 0.6 | 55 ± 1 | > 279000 | 3.68
6 | Cc1cc(COc2cccc(C#N)c2)cc(C)c1Oc1ccnc(Nc2ccc(C#N)cc2)n1 [TF3, 3-((4-((2-((4-cyanophenyl)amino)pyrimidin-4-yl)oxy)-3,5-dimethylbenzyl)oxy) benzonitrile] | 116 ± 5.8 | 895 ± 90.2 |  |  | 245 ± 39.6 | 755 ± 156 | 87.7 ± 8.5 |  | 5520 ± 297 | 48.4 ± 7.5 | 1540 ± 102 |  | 24.5 ± 4.1 | 60 | > 5520 | 1.92
7 | Cc1cc(COc2ccccc2C#N)cc(C)c1Oc1ccnc(Nc2ccc(C#N)cc2)n1 [TF4, 2-((4-((2-((4-cyanophenyl)amino)pyrimidin-4-yl)oxy)-3,5-dimethylbenzyl)oxy) benzonitrile] | 315 ± 30.7 | > 5300 |  |  | 482 ± 42.6 | 1280 ± 303 | 103 ± 6.8 |  | 5290 ± 356 | 75.9 ± 13.9 | > 5300 |  | 7.8 ± 1 | 50 ± 2 | > 5290 | 9.74
8 | COc1ccc(OCc2cc(C)c(Oc3ccnc(Nc4ccc(C#N)cc4)n3)c(C)c2)cc1 [TF5, 4-((4-(4-((4-methoxyphenoxy)methyl)-2,6-dimethylphenoxy)pyrimidin-2-yl)amino)benzonitrile] | 126 ± 12.6 | 964 ± 98.1 |  |  | 268 ± 28.9 | 1410 ± 570 | 65.3 ± 10 |  | 254000 | 44.5 ± 4.9 | > 254000 |  | 21.7 ± 3.6 | 54 ± 4 | > 254000 | 2.00
9 | COc1cccc(OCc2cc(C)c(Oc3ccnc(Nc4ccc(C#N)cc4)n3)c(C)c2)c1 [TF6, 4-((4-(4-((3-methoxyphenoxy)methyl)-2,6-dimethylphenoxy)pyrimidin-2-yl)amino)benzonitrile] | 156 ± 16.8 | 1390 ± 83.6 |  | 195.6 | 387 ± 87.4 | 1100 ± 281 | 149.7 ± 0.7 |  | 6900 ± 249 | 91.2 ± 14.4 | > 6900 | 149 to 152 | 35.3 ± 4.1 | 52 ± 4 | > 6900 | 2.60
10 | COc1ccccc1OCc1cc(C)c(Oc2ccnc(Nc3ccc(C#N)cc3)n2)c(C)c1 [TF7, 4-((4-(4-((2-methoxyphenoxy)methyl)-2,6-dimethylphenoxy)pyrimidin-2-yl)amino)benzonitrile] | 452 ± 70.5 | > 8150 |  |  | 791 ± 62.9 | 1220 ± 179 | 181 ± 10.7 |  | 8150 ± 548 | 164 ± 5.5 | > 8150 |  | 25.5 ± 8.4 | 73 ± 3 | > 8150 | 6.31
11 | Cc1cc(COc2ccc(CO)cc2)cc(C)c1Oc1ccnc(Nc2ccc(C#N)cc2)n1 [TF8, 4-((4-(4-((4-(hydroxymethyl)phenoxy)methyl)-2,6-dimethylphenoxy)pyrimidin-2-yl)amino)benzonitrile] | 329 ± 56.7 | 886 ± 20.1 |  | 68.1 | 667 ± 78 | 853 ± 81.4 | 148 ± 4.6 |  | 2920 ± 272 | 110 ± 4.6 | 1419 ± 9.7 | 209 to 212 | 42.8 ± 5.6 | 41 ± 1 | > 2920 | 2.56
12 | Cc1cc(COc2cccc(CO)c2)cc(C)c1Oc1ccnc(Nc2ccc(C#N)cc2)n1 [TF9, 4-((4-(4-((3-(hydroxymethyl)phenoxy)methyl)-2,6-dimethylphenoxy)pyrimidin-2-yl)amino)benzonitrile] | 308 ± 46.3 | 1100 ± 95.7 |  | 113.3 | 499 ± 44.6 | 1000 ± 29.6 | 147 ± 12 |  | 3460 ± 375 | 120 ± 18.2 | 1590 ± 87.5 | 147 to 150 | 30.5 ± 4 | 53 | > 3460 | 3.87
13 | Cc1cc(COc2ccc([N+](=O)[O-])cc2)cc(C)c1Oc1ccnc(Nc2ccc(C#N)cc2)n1 [TF15, 4-((4-(2,6-Dimethyl-4-((4-nitrophenoxy)methyl)phenoxy)pyrimidin-2-yl)amino) benzonitrile] | 105 ± 15.2 | 1080 ± 99.4 |  |  | 196 ± 25.4 | 1660 ± 448 | 50 ± 4.4 |  | 215000 | 46.3 ± 9.7 | 1800 ± 68.5 |  | 23.1 ± 3.1 | 63 ± 1 | > 215000 | 2.00
14 | Cc1cc(COc2ccc(N)cc2)cc(C)c1Oc1ccnc(Nc2ccc(C#N)cc2)n1 [TF17, 4-((4-(4-((4-Aminophenoxy)methyl)-2,6-dimethylphenoxy)pyrimidin-2-yl)amino) benzonitrile] | 226 ± 28.9 | 905 ± 147 |  |  | 552 ± 62.5 | 747 ± 72.2 | 152 ± 10.3 |  | 5490 ± 328 | 65.3 ± 7.6 |  |  | 32.5 ± 1.7 | 57 ± 3 | > 5490 | 1.97
